Experimental data reported in US11535611B2, “Pyrazolo[3,4-B]pyridines and imidazo[1,5-B]pyridazines as PDE1 inhibitors” (H. Lundbeck A/S, priority 2017, dated 2022).
pIC50: −log10 of the molar value.

How the values were obtained:
Format in all cases: biochemical
PDE1A = PDE1A (Homo sapiens (Human), UniProt P54750); test: PDE1 inhibition assay, PDE1A; details: for pIC50: 15 nM tritium labelled cAMP, 1 hr at room temperature, SPA beads; for inhibition at 1 µM: @ 1 μM compound; for inhibition at 10 µM: @ 10 μM compound
Description: (§1) PDE1A, PDE1B and PDE1C assays were performed as follows: the assays were performed in 60 μL samples containing a fixed amount of the PDE1 enzyme (sufficient to convert 20-25% of the cyclic nucleotide substrate), a buffer (50 mM HEPES (4-(2-hydroxyethyl)-1-piperazineethanesulfonic acid) pH 7.6; 10 mM MgCl2; 0.02% Tween20), 0.1 mg/ml BSA (bovine serum albumin), 15 nM tritium labelled cAMP and varying amounts of inhibitors. Reactions were initiated by addition of the cyclic nucleotide substrate, and reactions were allowed to proceed for 1 hr at room temperature before being terminated through mixing with 20 μL (0.2 mg) yttrium silicate SPA beads (PerkinElmer). The beads were allowed to settle for 1 hour in the dark before the plates were counted in a Wallac 1450 Microbeta counter. The measured signals were converted to activity relative to an uninhibited control (100%) and IC50 values were calculated using XIFit (model 205, IDBS).

PDE1B = PDE1B (Homo sapiens (Human), UniProt Q01064); test: PDE1 inhibition assay, PDE1B; details: 15 nM tritium labelled cAMP, 1 hr at room temperature, SPA beads; read-out: PDE1 B, IC50
Description: as §1

PDE1C = PDE1C (Homo sapiens (Human), UniProt Q14123); test: PDE1 inhibition assay, PDE1C; details: for pIC50: 15 nM tritium labelled cAMP, 1 hr at room temperature, SPA beads, read-out: PDE1 C, IC50; for inhibition at 1 µM: @ 1 μM compound, read-out: PDE1 C, % inhibition @ 1 μM; for inhibition at 10 µM: @ 10 μM compound, read-out: PDE1 C, % inhibition @ 10 μM
Description: as §1

Chain of PDE1A (P54750 whole entry): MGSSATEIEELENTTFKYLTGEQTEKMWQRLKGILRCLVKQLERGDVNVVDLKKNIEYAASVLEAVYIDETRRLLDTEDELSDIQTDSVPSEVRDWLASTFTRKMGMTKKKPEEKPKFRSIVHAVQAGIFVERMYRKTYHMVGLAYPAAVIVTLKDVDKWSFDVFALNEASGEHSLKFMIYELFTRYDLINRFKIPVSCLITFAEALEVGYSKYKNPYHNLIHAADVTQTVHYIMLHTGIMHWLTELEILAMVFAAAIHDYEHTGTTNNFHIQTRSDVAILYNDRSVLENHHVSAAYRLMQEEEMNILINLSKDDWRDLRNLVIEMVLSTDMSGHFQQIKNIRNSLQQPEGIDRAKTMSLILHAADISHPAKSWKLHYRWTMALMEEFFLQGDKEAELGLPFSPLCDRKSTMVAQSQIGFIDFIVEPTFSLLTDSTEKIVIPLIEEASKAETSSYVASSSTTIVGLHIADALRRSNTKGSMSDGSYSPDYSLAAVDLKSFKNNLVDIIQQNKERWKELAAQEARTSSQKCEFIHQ
Chain of PDE1C (Q14123 whole entry): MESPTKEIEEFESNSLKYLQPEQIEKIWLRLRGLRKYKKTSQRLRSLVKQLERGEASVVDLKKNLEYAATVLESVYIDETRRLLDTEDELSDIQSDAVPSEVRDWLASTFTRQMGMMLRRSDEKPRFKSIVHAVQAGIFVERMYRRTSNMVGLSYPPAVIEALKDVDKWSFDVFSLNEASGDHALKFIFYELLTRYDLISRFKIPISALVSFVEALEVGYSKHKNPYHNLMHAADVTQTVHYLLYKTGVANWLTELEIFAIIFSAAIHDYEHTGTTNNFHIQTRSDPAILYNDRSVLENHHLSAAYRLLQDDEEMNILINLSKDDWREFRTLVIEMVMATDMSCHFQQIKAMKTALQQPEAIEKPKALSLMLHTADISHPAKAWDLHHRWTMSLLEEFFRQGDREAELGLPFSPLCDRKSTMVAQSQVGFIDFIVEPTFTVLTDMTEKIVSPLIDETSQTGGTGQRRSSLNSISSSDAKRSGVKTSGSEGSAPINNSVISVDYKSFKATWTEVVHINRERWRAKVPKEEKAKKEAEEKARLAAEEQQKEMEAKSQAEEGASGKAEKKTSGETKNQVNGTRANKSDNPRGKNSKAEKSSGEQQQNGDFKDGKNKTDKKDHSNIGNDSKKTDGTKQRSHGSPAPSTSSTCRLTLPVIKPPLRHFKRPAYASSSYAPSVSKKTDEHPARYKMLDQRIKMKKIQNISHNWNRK
Chain of PDE1B (Q01064 whole entry): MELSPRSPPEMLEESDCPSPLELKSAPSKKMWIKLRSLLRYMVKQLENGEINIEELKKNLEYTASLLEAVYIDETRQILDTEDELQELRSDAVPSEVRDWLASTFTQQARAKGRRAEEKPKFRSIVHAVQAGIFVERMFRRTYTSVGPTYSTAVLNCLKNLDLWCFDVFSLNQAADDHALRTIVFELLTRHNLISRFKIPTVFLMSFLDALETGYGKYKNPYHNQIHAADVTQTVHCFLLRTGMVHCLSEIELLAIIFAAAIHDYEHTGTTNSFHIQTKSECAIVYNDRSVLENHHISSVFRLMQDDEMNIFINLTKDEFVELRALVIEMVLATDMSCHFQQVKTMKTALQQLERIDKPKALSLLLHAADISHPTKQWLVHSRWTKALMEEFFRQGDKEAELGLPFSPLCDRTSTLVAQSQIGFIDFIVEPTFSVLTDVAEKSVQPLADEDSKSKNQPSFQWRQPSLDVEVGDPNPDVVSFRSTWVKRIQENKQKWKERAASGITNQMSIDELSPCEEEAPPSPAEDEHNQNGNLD

Compound | pIC50 (PDE1A) | pIC50 (PDE1B) | pIC50 (PDE1C) | inhibition at 1 µM (PDE1A) [%] | inhibition at 1 µM (PDE1C) [%] | inhibition at 10 µM (PDE1A) [%] | inhibition at 10 µM (PDE1C) [%]
CCOc1ncccc1-c1cc(N[C@@H]2CCOC2)c2c(cnn2CC)n1 (single isomer, unassigned) [Example 20, 5-(2-ethoxy-3-pyridyl)-1-ethyl-N-[tetrahydrofuran-3-yl]pyrazolo[4,3-b]pyridin-7-amine] | 6.33 | 6.75 | 6.02 | – | – | – | –
CCOc1ncccc1-c1nc2c(C)nn(C(C)C)c2cc1C [Example 63, 5-(2-ethoxy-3-pyridyl)-1-isopropyl-3,6-dimethyl-pyrazolo[4,3-b]pyridine] | 7.07 | 7.80 | 6.76 | – | – | – | –
COc1ncc(C#N)cc1-c1cc(N[C@@H]2CCOC2)c2c(cnn2C(C)C)n1 [Example 54, 5-[1-isopropyl-7-[[(3R)-tetrahydrofuran-3-yl]amino]pyrazolo[4,3-b]pyridin-5-yl]-6-methoxy-pyridine-3-carbonitrile] | – | 5.82 | 5.62 | – | – | 59 | –
CCOc1ncccc1-c1cc(NC)c2c(n1)c(C)nn2C(C)C [Example 65, 5-(2-ethoxy-3-pyridyl)-1-isopropyl-N,3-dimethyl-pyrazolo[4,3-b]pyridin-7-amine] | 7.30 | 8.15 | 6.95 | – | – | – | –
CCOc1ccccc1-c1cc(N[C@@H]2CCOC2)c2c(cnn2C(C)C)n1 [Example 53, 5-(2-ethoxyphenyl)-1-isopropyl-N-[(3R)-tetrahydrofuran-3-yl]pyrazolo[4,3-b]pyridin-7-amine] | – | 6.52 | – | – | – | 73 | 61
CC(C)n1ncc2nc(-c3cccc4c3OCCO4)cc(N[C@@H]3CCOC3)c21 [Example 42, 5-(2,3-dihydro-1,4-benzodioxin-5-yl)-1-isopropyl-N-[(3R)-tetrahydrofuran-3-yl]pyrazolo[4,3-b]pyridin-7-amine] | 5.80 | 6.26 | – | – | – | – | 68
CCOc1ncncc1-c1cc(NC2CCOC2)c2c(cnn2C(C)C)n1 (stereo in doubt) [Example 50, 5-(4-ethoxypyrimidin-5-yl)-1-isopropyl-N-[(3R)-tetrahydrofuran-3-yl]pyrazolo[4,3-b]pyridin-7-amine] | 5.52 | 6.04 | 5.74 | – | – | – | –
CCCOc1ncccc1-c1nc2c(C)nn(C(C)C)c2cc1C [Example 64, 1-isopropyl-3,6-dimethyl-5-(2-propoxy-3-pyridyl)pyrazolo[4,3-b]pyridine] | 6.93 | 7.60 | 6.66 | – | – | – | –
COc1nc(C)ccc1-c1cc(N[C@@H]2CCOC2)c2c(cnn2C(C)C)n1 [Example 29, 1-isopropyl-5-(2-methoxy-6-methyl-3-pyridyl)-N-[(3R)-tetrahydrofuran-3-yl]pyrazolo[4,3-b]pyridin-7-amine] | – | 5.77 | – | – | – | 31 | 68
CCCn1ncc2nc(-c3cccnc3OCC)cc(N[C@@H]3CCOC3)c21 (single isomer, unassigned) [Example 23, 5-(2-ethoxy-3-pyridyl)-1-propyl-N-[tetrahydrofuran-3-yl]pyrazolo[4,3-b]pyridin-7-amine] | 6.32 | 6.77 | 5.59 | – | – | – | –
CCOc1ncccc1-c1cc(NC[C@@H]2CCCO2)c2c(cnn2C(C)C)n1 [Example 6, 5-(2-ethoxy-3-pyridyl)-1-isopropyl-N-[[(2S)-tetrahydrofuran-2-yl]methyl]pyrazolo[4,3-b]pyridin-7-amine] | 6.19 | 6.95 | 5.86 | – | – | – | –
CCOc1ncccc1-c1cc(N[C@@H]2CCCOC2)c2c(cnn2C(C)C)n1 [Example 8, 5-(2-ethoxy-3-pyridyl)-1-isopropyl-N-[(3R)-tetrahydropyran-3-yl]pyrazolo[4,3-b]pyridin-7-amine] | 5.67 | 6.37 | 5.54 | – | – | – | –
CCOc1ncccc1-c1nc2c(C)nn(CC)c2cc1C [Example 15, 5-(2-ethoxy-3-pyridyl)-1-ethyl-3,6-dimethyl-pyrazolo[4,3-b]pyridine] | 6.00 | 6.81 | 5.72 | – | – | – | –
COc1cccc(Cc2cc(N[C@@H]3CCOC3)c3c(cnn3C(C)C)n2)c1 [Example 37, 1-isopropyl-5-[(3-methoxyphenyl)methyl]-N-[(3R)-tetrahydrofuran-3-yl]pyrazolo[4,3-b]pyridin-7-amine] | – | 5.87 | 5.78 | – | – | 60 | –
CCOc1ncccc1-c1cc(N[C@@H]2CCOC2)c2c(cnn2CC)n1 (single isomer, unassigned) [Example 19, 5-(2-ethoxy-3-pyridyl)-1-ethyl-N-[tetrahydrofuran-3-yl]pyrazolo[4,3-b]pyridin-7-amine] | 6.49 | 7.07 | 5.51 | – | – | – | –
CCOc1ncccc1-c1cc(NC[C@H]2CCCO2)c2c(cnn2C(C)C)n1 [Example 7, 5-(2-ethoxy-3-pyridyl)-1-isopropyl-N-[[(2R)-tetrahydrofuran-2-yl]methyl]pyrazolo[4,3-b]pyridin-7-amine] | 6.35 | 7.08 | 5.77 | – | – | – | –
CCNc1cc(-c2cccnc2OCC)nc2c(C)nn(C(C)C)c12 [Example 66, 5-(2-ethoxy-3-pyridyl)-N-ethyl-1-isopropyl-3-methyl-pyrazolo[4,3-b]pyridin-7-amine] | 7.22 | 8.30 | 6.79 | – | – | – | –
COc1cnccc1-c1cc(N[C@@H]2CCOC2)c2c(cnn2C(C)C)n1 [Example 30, 1-isopropyl-5-(3-methoxy-4-pyridyl)-N-[(3R)-tetrahydrofuran-3-yl]pyrazolo[4,3-b]pyridin-7-amine] | 5.81 | 6.63 | 5.59 | – | – | – | –
CCOc1ncccc1-c1cc(N[C@H]2CCOC2)c2c(cnn2C(C)C)n1 (single isomer, unassigned) [Example 21, 5-(2-ethoxy-3-pyridyl)-1-isopropyl-N-[tetrahydrofuran-3-yl]pyrazolo[4,3-b]pyridin-7-amine] | – | 7.32 | – | – | – | – | –
CCOc1ncccc1-c1cc(N[C@H]2CCOC2)c2c(cnn2C(C)C)n1 (single isomer, unassigned) [Example 22, 5-(2-ethoxy-3-pyridyl)-1-isopropyl-N-[tetrahydrofuran-3-yl]pyrazolo[4,3-b]pyridin-7-amine] | – | 7.49 | – | – | – | – | –

Now from value to compound:

pIC50 (PDE1A) | pIC50 (PDE1B) | pIC50 (PDE1C) | inhibition at 1 µM (PDE1A) [%] | inhibition at 1 µM (PDE1C) [%] | inhibition at 10 µM (PDE1A) [%] | inhibition at 10 µM (PDE1C) [%] | Compound
– | 6.27 | – | 22 | 20 | – | – | CCOc1ncccc1-c1cc(N[C@@H]2CCC[C@H]2OC)c2c(cnn2C)n1 [Example 86, 5-(2-ethoxy-3-pyridyl)-N-[(1R,2R)-2-methoxycyclopentyl]-1-methyl-pyrazolo[4,3-b]pyridin-7-amine]
6.35 | 6.62 | 6.14 | – | – | – | – | CCOc1ncccc1-c1ccn2c(C3(C)COC3)nc(C)c2n1 [Example 77, 2-(2-ethoxy-3-pyridyl)-8-methyl-6-(3-methyloxetan-3-yl)imidazo[1,5-a]pyrimidine]
7.29 | 8.22 | 7.11 | – | – | – | – | CCOc1ncccc1-c1ccn2c([C@H](C)CC)nc(C)c2n1 (single isomer, unassigned) [Example 83, 2-(2-ethoxy-3-pyridyl)-8-methyl-6-[1-methylpropyl]imidazo[1,5-a]pyrimidine]
– | 6.42 | – | 42 | 26 | – | – | CCOc1ncccc1-c1cc(N2CCC(C)(F)C2)c2c(cnn2C)n1 (racemic) [Example 87, (±)-5-(2-ethoxy-3-pyridyl)-7-(3-fluoro-3-methyl-pyrrolidin-1-yl)-1-methyl-pyrazolo[4,3-b]pyridine]
6.49 | 6.68 | 6.14 | – | – | – | – | CCOc1ncccc1-c1ccn2c(CC(F)(F)F)nc(C)c2n1 [Example 78, 2-(2-ethoxy-3-pyridyl)-8-methyl-6-(2,2,2-trifluoroethyl)imidazo[1,5-a]pyrimidine]
7.21 | 7.89 | 6.89 | – | – | – | – | CCOc1ncccc1-c1cc(N)c2c(n1)c(C)nn2C(C)C [Example 69, 5-(2-ethoxy-3-pyridyl)-1-isopropyl-3-methyl-pyrazolo[4,3-b]pyridin-7-amine]
5.95 | 6.84 | 5.79 | – | – | – | – | CCOc1ncccc1-c1ccn2c(C3CCOC3)nc(C)c2n1 (racemic) [Example 81, (±)-2-(2-ethoxy-3-pyridyl)-8-methyl-6-tetrahydrofuran-3-yl-imidazo[1,5-a]pyrimidine]
7.21 | 8.05 | 6.95 | – | – | – | – | CCOc1ncccc1-c1ccn2c(C(C)CC)nc(C)c2n1 (racemic) [Example 76, (±)-2-(2-ethoxy-3-pyridyl)-8-methyl-6-sec-butyl-imidazo[1,5-a]pyrimidine]
6.40 | 6.92 | 5.93 | – | – | – | – | CCOc1ncccc1-c1ccn2c(C3CC3)nc(C)c2n1 [Example 74, 6-cyclopropyl-2-(2-ethoxy-3-pyridyl)-8-methyl-imidazo[1,5-a]pyrimidine]
7.28 | 7.92 | 7.06 | – | – | – | – | CCOc1ncccc1-c1cc(NCC2CC(=O)N(C)C2)c2c(n1)c(C)nn2C(C)C (centres unmarked) [Example 68, 4-[[[5-(2-ethoxy-3-pyridyl)-1-isopropyl-3-methyl-pyrazolo[4,3-b]pyridin-7-yl]amino]methyl]-1-methyl-pyrrolidin-2-one]
